Test results: patent US9423396B2, “Bodipy structure fluorescence probes for diverse biological applications” (National University of Singapore, priority 2011, dated 2016)

Assay: Spectroscopic measurements (absorption, emission, quantum yield, extinction coefficient)
Assay type: physicochemical
[1] = BDNCA library, difference emission minus absorption
[2] = BDNCA library, extinction coefficient; in M-1 cm-1 (unit assumed)
[3] = BDNCA library, fluorescence emission
[4] = absorption maximum, BDNCA library
[5] = difference of emission and absorption maxima
[6] = extinction coefficient, BDNCA library; in M-1 cm-1 (unit assumed)
[7] = fluorescence emission maximum, BDNCA library

Row | Structure (SMILES) | Qunt. Yield (BDNCA library) | Abs (BDNCA library, absorption) | Flu-Abs [1] | ε [2] | Flu [3] | Abs [4] | Flu-Abs [5] | ε [6] | Flu [7] | Qunt. Yield (quantum yield, BDNCA library)
1 | COc1cc(Br)cc(/C=C/C2=[N+]3C(=C(c4ccc(NC(=O)CCl)cc4)c4cccn4[B-]3(F)F)C(C)=C2)c1OC [BDNCA-228] | 0.13 | 558 nm | 19 | 63,707 | 577 | – | – | – | – | –
2 | Cc1cc(/C=C/c2ccc(Br)cc2)n2c1C(c1ccc(NC(=O)CCl)cc1)=C1C=CC=[N+]1[B-]2(F)F [BDNCA-409] | – | – | – | – | – | 557 nm | 20 | 87,597 | 577 | 0.14
3 | Cc1cccc(/C=C/c2cc(C)c3n2[B-](F)(F)[N+]2=CC=CC2=C3c2ccc(NC(=O)CCl)cc2)c1 [BDNCA-9] | 0.10 | 556 nm | 19 | 47,780 | 575 | – | – | – | – | –
4 | Cc1cc(/C=C/c2ccc3c(c2)OC(F)(F)O3)n2c1C(c1ccc(NC(=O)CCl)cc1)=C1C=CC=[N+]1[B-]2(F)F [BDNCA-332] | – | – | – | – | – | 556 nm | 19 | 27,735 | 575 | 0.05
5 | CC1=CC(/C=C/c2ccc3c(c2)OCO3)=[N+]2C1=C(c1ccc(NC(=O)CCl)cc1)c1cccn1[B-]2(F)F [BDNCA-139] | 0.09 | 568 nm | 39 | 35,423 | 607 | – | – | – | – | –
6 | CC1=CC(/C=C/c2ccccc2OC(F)(F)F)=[N+]2C1=C(c1ccc(NC(=O)CCl)cc1)c1cccn1[B-]2(F)F [BDNCA-365] | – | – | – | – | – | 553 nm | 16 | 45,584 | 569 | 0.07
7 | CC1=CC(/C=C/c2cccc(O)c2)=[N+]2C1=C(c1ccc(NC(=O)CCl)cc1)c1cccn1[B-]2(F)F [BDNCA-105] | 0.06 | 556 nm | 19 | 38,719 | 575 | – | – | – | – | –
8 | CC1=CC(/C=C/c2ccc(C#N)cc2)=[N+]2C1=C(c1ccc(NC(=O)CCl)cc1)c1cccn1[B-]2(F)F [BDNCA-15] | 0.13 | 560 nm | 18 | 49,977 | 578 | – | – | – | – | –
9 | COc1ccc(/C=C/C2=[N+]3C(=C(c4ccc(NC(=O)CCl)cc4)c4cccn4[B-]3(F)F)C(C)=C2)cc1[N+](=O)[O-] [BDNCA-350] | – | – | – | – | – | 560 nm | 21 | 34,874 | 581 | 0.07
10 | CCc1ccc(/C=C/C2=[N+]3C(=C(c4ccc(NC(=O)CCl)cc4)c4cccn4[B-]3(F)F)C(C)=C2)cc1[N+](=O)[O-] [BDNCA-252] | 0.08 | 556 nm | 20 | 57,666 | 576 | – | – | – | – | –
11 | Cc1ccc(/C=C/c2cc(C)c3n2[B-](F)(F)[N+]2=CC=CC2=C3c2ccc(NC(=O)CCl)cc2)s1 [BDNCA-236] | 0.11 | 577 nm | 31 | 72,220 | 608 | – | – | – | – | –
12 | COc1cc(F)c(/C=C/c2cc(C)c3n2[B-](F)(F)[N+]2=CC=CC2=C3c2ccc(NC(=O)CCl)cc2)cc1OC [BDNCA-305] | 0.22 | 568 nm | 38 | 153,227 | 606 | – | – | – | – | –
13 | CCc1ccccc1/C=C/c1cc(C)c2n1[B-](F)(F)[N+]1=CC=CC1=C2c1ccc(NC(=O)CCl)cc1 [BDNCA-251] | 0.11 | 555 nm | 23 | 54,096 | 578 | – | – | – | – | –
14 | CC1=CC(/C=C/c2ccc(C)c(Cl)c2)=[N+]2C1=C(c1ccc(NC(=O)CCl)cc1)c1cccn1[B-]2(F)F [BDNCA-289] | 0.16 | 560 nm | 26 | 60,686 | 586 | – | – | – | – | –
15 | CC1=CC(/C=C/c2ccc(Oc3cccc(Cl)c3)cc2)=[N+]2C1=C(c1ccc(NC(=O)CCl)cc1)c1cccn1[B-]2(F)F [BDNCA-290] | 0.14 | 557 nm | 20 | 65,629 | 577 | – | – | – | – | –
16 | CC1=CC(/C=C/c2ccc(N(C)CCC#N)cc2)=[N+]2C1=C(c1ccc(NC(=O)CCl)cc1)c1cccn1[B-]2(F)F [BDNCA-3] | weak | 605 nm | – | 73,593 | weak | – | – | – | – | –
17 | CC1=CC(/C=C/c2cccc(Oc3ccc(C(C)(C)C)cc3)c2)=[N+]2C1=C(c1ccc(NC(=O)CCl)cc1)c1cccn1[B-]2(F)F [BDNCA-435] | – | – | – | – | – | 556 nm | 20 | 61,510 | 576 | 0.13
18 | CC(=O)OCCN(CCOC(C)=O)c1ccc(/C=C/C2=[N+]3C(=C(c4ccc(NC(=O)CCl)cc4)c4cccn4[B-]3(F)F)C(C)=C2)cc1 [BDNCA-114] | weak | 608 nm | – | 42,288 | weak | – | – | – | – | –
19 | Cc1cc(/C=C/c2cc(Cl)ccc2Cl)n2c1C(c1ccc(NC(=O)CCl)cc1)=C1C=CC=[N+]1[B-]2(F)F [BDNCA-407] | – | – | – | – | – | 555 nm | 20 | 42,288 | 575 | 0.07
